Source: patent US20100113276A1, “USE OF N2-PHENYLAMIDINES AS HERBICIDES” (BAYER CROPSCIENCE AG, priority 2007, published 2010)

Assay: log P by HPLC on reversed-phase column (C18), EEC Directive 79/831 Annex V.A8
Format: physicochemical
Settings: C18, 40° C.; for log p H3PO4: 0.1% aqueous phosphoric acid / acetonitrile; for log p HCO2H: aqueous formic acid / acetonitrile
Description: The log P data were determined in accordance with the EEC Directive 79/831 Annex V.A8 by HPLC (High Performance Liquid Chromatography) on a reversed-phase column (C18) using the following methods: […]
Calibration was carried out with the help of unbranched alkan-2-ones (consisting of 3 to 13 or 16 carbon atoms) with known logP values (determination of the logP values via the retention times by means of linear interpolation between two subsequent alkanones).

log p H3PO4	log p HCO2H	log p neutral	log p acidic	SMILES
2.82	2.66	6.03		Cc1cc(N=CN2CCCCC2)c(Cl)cc1Oc1cccc(Oc2ccccc2)c1 [compound 882]
2.74	2.79	5.91		CCN(C)C=Nc1cc(Cl)c(Oc2cccc(C(C)(C)C)c2)cc1Cl [compound 806]
			1.89	CCN(C)C=Nc1cc(OC)c(-c2ccc(C)cc2)cc1OC [compound 999]
		4.52	1.78	CCCN(C)C=Nc1cc(Cl)c(Oc2cc(C(C)C)nn2C)cc1C [compound 603]
3.36	3.25	7.04		Cc1cc(N=CN2CCCCC2)c(Cl)cc1Oc1ccc(Cl)c(C(C)(C)C)c1 [compound 906]
	2.01	5.31	2.01	CCN(C)C=Nc1cc(Cl)c(Oc2nc(C(C)(C)C)ns2)cc1C [compound 608]
			2.38	CCN(C)C=Nc1cc(C)c(Oc2ccc(Cl)c(C(F)(F)F)c2)cc1C [compound 34]
		7.01	2.93	CCCN(C)C=Nc1cc(Cl)c(Oc2ccc(Br)c(C(C)C)c2)cc1C [compound 590]
			2.51	CCN(C)C=Nc1cc(C)c(Oc2cccc(Oc3ccccc3)c2)cc1C [compound 290]
			1.32	CCN(C)C=Nc1cc(F)c(-c2nnc(C3CC3)s2)cc1C [compound 681]
		5.74	2.71	CC(C)(C)c1cc(Oc2cc(F)c(N=CN3CCCCC3)cc2F)ccc1Cl [compound 836]
2.82	3.08	6		CC(C)N(C)C=Nc1cc(C(F)(F)F)c(Oc2ccc(Cl)c(C(F)(F)F)c2)cc1Cl [compound 949]
		5.96	2.69	CCN(C)C=Nc1cc(C)c(Oc2ccc(Cl)c(C(C)(C)C)c2)cc1C [compound 50]
2.87	2.69	5.86		CCN(C)C=Nc1cc(C)c(Oc2ccc(C(C)(C)C)cc2)cc1Cl [compound 884]
			2.21	CCN(C)C=Nc1cc(OC)c(Oc2ccc(Cl)c(C(F)(F)F)c2)cc1C [compound 721]
		5.59	2.27	CCN(C)C=Nc1cc(C)c(-c2ccc(Cl)c(C)c2)cc1C [compound 398]
		5.11	2.17	Cc1cc(Oc2cc(F)cc(Br)c2)c(C)cc1N=CN(C)C [compound 1]
		5.54	2.31	CCN(C)C=Nc1cc(C)c(Oc2cc(F)cc(C(F)(F)F)c2)cc1C [compound 371]
2.53	2.78	5.61		CC(C)N(C)C=Nc1cc(Cl)c(Oc2nc(C(C)(C)C)ns2)cc1Cl [compound 826]
			2.18	CCN(C)C=Nc1cc(C)c(Oc2cc(Cl)cc(C(C)C)n2)cc1C [compound 407]
